This is an account of results in the supplement of paper PMC10307832.

Holding throughout (experiment): relative viability (nuclei count vs DMSO), 5 days (fraction); higher = more cells survive
Compound in experiment [1]: Cc1ccc(Nc2nccc(N(C)c3ccc4c(C)n(C)nc4c3)n2)cc1S(N)(=O)=O [Pazopanib] + N=C(N)NC(=N)NCCc1ccccc1 [Phenformin] (partner 250 µM)
The method, boiled down:
(§1)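 Lung cancer cell lines in 1536-well plates got either a single drug or a fixed anchor-drug dose together with five library-drug doses (not always all listed) in √10 steps, by pin tool, on the day after seeding. Nuclei were counted after 5 days, and relative viability is the treated-to-vehicle ratio of nuclei counts. Values are medians of duplicate plates.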

Compound in experiment [2]: Cc1ccc(C(=O)Nc2ccc(CN3CCN(C)CC3)c(C(F)(F)F)c2)cc1C#Cc1cnc2cccnn12 [Ponatinib] + CCNC(=O)c1noc(-c2cc(C(C)C)c(O)cc2O)c1-c1ccc(CN2CCOCC2)cc1 [Luminespib] (partner 0.01 µM)
The method, boiled down: as §1

Compound in experiment [3]: Cc1ccc(Nc2nccc(N(C)c3ccc4c(C)n(C)nc4c3)n2)cc1S(N)(=O)=O [Pazopanib] + O=C(c1cc(Cc2n[nH]c(=O)c3ccccc23)ccc1F)N1CCN(C(=O)C2CC2)CC1 [Olaparib] (partner 8 µM)
The procedure, abridged: as §1

Compound in experiment [4]: Cc1ccc(Nc2nccc(N(C)c3ccc4c(C)n(C)nc4c3)n2)cc1S(N)(=O)=O [Pazopanib] + CC(=O)c1c(C)c2cnc(Nc3ccc(N4CCNCC4)cn3)nc2n(C2CCCC2)c1=O [Palbociclib] (partner 0.5 µM)
The procedure, abridged:
as §1

As for UMC-11, the relative viability came out at 0.347 in experiment [1] (first compound 0.01 µM); 0.339 in experiment [1] (first compound 0.03162 µM); 0.361 in experiment [1] (first compound 0.1 µM); 0.32 in experiment [1] (first compound 0.3162 µM); 0.341 in experiment [1] (first compound 1 µM); 1.07 in experiment [2] (first compound 0.002 µM). For the same cell line, the relative viability in experiment [2] (first compound 0.006325 µM) worked out at 1.16; in experiment [2] (first compound 0.06325 µM), 1.04; in experiment [2] (first compound 0.2 µM) it was 0.979; in experiment [3] (first compound 0.01 µM), 0.425; in experiment [3] (first compound 0.03162 µM), 0.359; in experiment [3] (first compound 0.1 µM), 0.41. Further, the relative viability worked out at 0.509 in experiment [3] (first compound 0.3162 µM); 0.34 in experiment [3] (first compound 1 µM); 0.305 in experiment [4] (first compound 0.01 µM); 0.347 in experiment [4] (first compound 0.03162 µM); 0.31 in experiment [4] (first compound 0.1 µM); 0.358 in experiment [4] (first compound 0.3162 µM). Besides, the relative viability in experiment [4] (first compound 1 µM) was determined as 0.32.
